Patent publication US20220017489A1, “SOLID DISPERSIONS FOR TREATMENT OF CANCER” (Celgene Corporation, priority 2018, published 2022)
≈ marks a conversion by molar mass, not a printed value. Read-outs that look alike come from different tables or passages of the source. Values belong to the compound of their own block, whether it stands above or below them.

Assays:
[1] = Amorphous solid dispersion screen for Compound 1A: HT-XRPD after accelerated aging conditions (40° C./70% RH, 4 weeks); assay type: physicochemical; settings: HT-XRPD form after accelerated aging conditions, 4 weeks at 40° C. and 70% RH
Protocol: The plates were mounted on a Bruker General Area Detector Diffraction System (GADDS) equipped with a VÅNTEC-500 gas area detector corrected for intensity and geometric variations. The calibration of the measurement accuracy (peaks position) was performed using NIST SRM1976 standard (Corundum).
No background subtraction or curve smoothing was applied to the XRPD patterns.

[2] = Solubility determination of amorphous solid dispersions of Compound 1A in water, SIF and SGF at 37° C.; assay type: physicochemical
Protocol: For the solubility determination, suspensions of Compound 1A and dispersions were prepared in 3 mL aqueous medium. […] Samples were taken after 0.5, 1 and 2 hours, filtered over a PTFE spin filter and the concentration of Enasidenib in solution was determined by HPLC analysis. In the next sections the solubility results are discussed per aqueous media.
The concentration of API in solution was determined by HPLC analysis after 0.5, 1 and 2 hours.

[3] = physchem; settings: thermodynamic from solid
[4] = 37° C.
[5] = Quantitative (24-hour shake flask) thermodynamic solubility of Compound 1A in organic solvents and water; assay type: physicochemical; settings: room temperature
Protocol: The solubility of Compound 1A was quantitatively assessed in 10 different organic solvents and water. Slurries were prepared by mixing 30 mg of Compound 1A with an appropriate solvent volume. A stirring bean was added and the suspensions were stirring (500 rpm) at room temperature for 24 hours. An aliquot of the suspension was transferred into a spin filter (nylon, 0.2 μm). The solubility of the filtered solution was determined by HPLC.

[6] = Kinetic solubility of Compound 1A in SIF and SGF (DMSO solutions added to medium); assay type: physicochemical; settings: 80 μL of 60, 30, 15 and 5 mg/mL DMSO solutions added to 4 mL
Protocol: Prior to the solvent shift experiments, the kinetic solubility of Compound 1A was tested in simulated intestinal fluid (SIF) and simulated gastric fluid (SGF) in order to choose the Compound 1A concentration suitable for the solvent shift experiments. Four different Compound 1A solutions (in DMSO) were prepared with concentrations of 60, 30, 15 and 5 mg/mL. Subsequently, 80 μL of these solutions were added to 4 mL of SGF and to 4 mL of SIF.
For the solvent shift experiments in SIF, Compound 1A concentration in DMSO of 5 mg/mL was used.

[7] = Anti-precipitant screening of Compound 1A by solvent shift method in SIF; assay type: physicochemical; settings: control experiment, crystalline solid, no polymer
Protocol: The anti-precipitant screen by the solvent shift method was used for discovering polymers that can maintain the supersaturated state of Compound 1A in solution. Based on the results of this screen, polymers were selected for the development of the ASD.
The concentration of free base in solution was determined by HPLC analysis.

[8] = thermodynamic from solid, Water

XRPD AAC [1]: Form 1
Concentration API ([2]; SGF, 0.5 hours): 20800 ng/mL
Concentration API ([2]; SGF, 1 hour): 13000 ng/mL
Concentration API ([2]; SGF, 2 hours): 10900 ng/mL
Concentration API ([2]; SIF, 0.5 hours): <100 ng/mL
Concentration API ([2]; SIF, 1 hour): <100 ng/mL
Concentration API ([2]; SIF, 2 hours): <100 ng/mL
Concentration API ([2]; Water, 0.5 hours): <100 ng/mL
Concentration API ([2]; Water, 1 hour): <100 ng/mL
Concentration API ([2]; Water, 2 hours): <100 ng/mL
Compound: CC(C)(O)CNc1nc(Nc2ccnc(C(F)(F)F)c2)nc(-c2cccc(C(F)(F)F)n2)n1 [ASD102]

solubility at 24 h ([3]; 1,4-dioxane, organic solvent or mixture): 400 µg/mL (≈ 0.845 mM)
solubility at 24 h ([3]; 2-propanol, organic solvent or mixture): 1400 µg/mL (≈ 2.96 mM)
solubility at 24 h ([3]; acetone, organic solvent or mixture): 900 µg/mL (≈ 1.9 mM)
solubility at 24 h ([3]; acetonitrile, organic solvent or mixture): 500 µg/mL (≈ 1.06 mM)
solubility at 24 h ([3]; chloroform, organic solvent or mixture): 200 µg/mL (≈ 0.422 mM)
solubility at 24 h ([3]; ethanol, organic solvent or mixture): 7300 µg/mL (≈ 15.4 mM)
solubility at 24 h ([3]; ethyl acetate, organic solvent or mixture): 200 µg/mL (≈ 0.422 mM)
solubility at 24 h ([3]; methanol, organic solvent or mixture): 35600 µg/mL (≈ 75.2 mM)
solubility at 24 h ([3]; tetrahydrofuran, organic solvent or mixture): 1800 µg/mL (≈ 3.8 mM)
solubility at 24 h ([3]; water): < 100 µg/mL
Concentration API (μg/mL) 0.5 h ([4]; SGF): 21.9 µg/mL
pH 0.5 h ([4]; SGF): 1.24
Concentration API (μg/mL) 1 h ([4]; SGF): 17.2 µg/mL
Concentration API (μg/mL) 2 h ([4]; SGF): 14.6 µg/mL
pH 2 h ([4]; SGF): 1.23
Concentration API (μg/mL) 0.5 h ([4]; SIF): 0.4 µg/mL
pH 0.5 h ([4]; SIF): 6.60
Concentration API (μg/mL) 1 h ([4]; SIF): <0.1 µg/mL
Concentration API (μg/mL) 2 h ([4]; SIF): <0.1 µg/mL
pH 2 h ([4]; SIF): 6.44
Concentration API (μg/mL) 0.5 h ([4]; Water): 0.7 µg/mL
pH 0.5 h ([4]; Water): 2.64
Concentration API (μg/mL) 1 h ([4]; Water): 0.4 µg/mL
Concentration API (μg/mL) 2 h ([4]; Water): 0.3 µg/mL
pH 2 h ([4]; Water): 2.15
solubility ([5]; Water): practically insoluble
solubility at 24 h ([5]; organic solvent or mixture, thermodynamic from solid, 1,4-Dioxane): 69200 µg/mL (≈ 146 mM)
solubility at 24 h ([5]; organic solvent or mixture, thermodynamic from solid, 2-Propanol): 229000 µg/mL (≈ 484 mM)
solubility at 24 h ([5]; organic solvent or mixture, thermodynamic from solid, Acetone): 209000 µg/mL (≈ 442 mM)
solubility at 24 h ([5]; organic solvent or mixture, thermodynamic from solid, Acetonitrile): 14700 µg/mL (≈ 31.1 mM)
solubility at 24 h ([5]; organic solvent or mixture, thermodynamic from solid, Chloroform): 70600 µg/mL (≈ 149 mM)
solubility at 24 h ([5]; organic solvent or mixture, thermodynamic from solid, Ethanol): > 408000 µg/mL
solubility at 24 h ([5]; organic solvent or mixture, thermodynamic from solid, Ethyl acetate): 127000 µg/mL (≈ 268 mM)
solubility at 24 h ([5]; organic solvent or mixture, thermodynamic from solid, Methanol): > 463000 µg/mL
solubility at 24 h ([5]; organic solvent or mixture, thermodynamic from solid, Tetrahydrofuran): > 429000 µg/mL
solubility at 24 h [5, 8]: < 100 µg/mL
Solubility of crystalline Compound 1A in SIF [7]: practically insoluble
Concentration API ([2]; SGF, 0.5 hours): ~80000 ng/mL
Concentration API ([2]; SGF, 0.5 hours, listed as SM): 75800 ng/mL
Concentration API ([2]; SGF, 1 hour): 41300 ng/mL
Concentration API ([2]; SGF, 2 hours): about 20 μg/mL
Concentration API ([2]; SGF, 2 hours, listed as SM): 19400 ng/mL
Concentration API ([2]; SIF, 0.5 hours): 300 ng/mL
Concentration API ([2]; SIF, 1 hour): <100 ng/mL
Concentration API ([2]; SIF, 2 hours): <100 ng/mL
Concentration API ([2]; Water, 0.5 hours, listed as SM): 1000 ng/mL
Concentration API ([2]; Water, 1 hour): 400 ng/mL
Concentration API ([2]; Water, 2 hours): <100 ng/mL
solubility [2, 8]: ~1 µg/mL (≈ 0.00211 mM)
Compound: CC(C)(O)CNc1nc(Nc2ccnc(C(F)(F)F)c2)nc(-c2cccc(C(F)(F)F)n2)n1 [Compound 1A, 2-methyl-1-[(4-[6-(trifluoromethyl)pyridin-2-yl]-6-{[2-(trifluoromethyl)pyridin-4-yl]amino}-1,3,5-triazin-2-yl)amino]propan-2-ol]
Kinetic solubility (precipitation) ([6]; SGF): precipitation was observed when using the solution with the highest concentration
Kinetic solubility (precipitation) ([6]; SIF): precipitated using all four concentrations
